Where two headings read alike, the source gives them in different places.
Assays:
[1] = target: T1, rat GPR14 (U-II receptor) (Rattus norvegicus, UniProt P49684); experiment: Rat UII Calcium Mobilization FLIPR Assay; assay type: cell-based; details: average value for the compound tested; read-out: Rat UII FLIPR Average IC50
T1 construct: expressed in transfected cells
T1 sequence (P49684 1-386): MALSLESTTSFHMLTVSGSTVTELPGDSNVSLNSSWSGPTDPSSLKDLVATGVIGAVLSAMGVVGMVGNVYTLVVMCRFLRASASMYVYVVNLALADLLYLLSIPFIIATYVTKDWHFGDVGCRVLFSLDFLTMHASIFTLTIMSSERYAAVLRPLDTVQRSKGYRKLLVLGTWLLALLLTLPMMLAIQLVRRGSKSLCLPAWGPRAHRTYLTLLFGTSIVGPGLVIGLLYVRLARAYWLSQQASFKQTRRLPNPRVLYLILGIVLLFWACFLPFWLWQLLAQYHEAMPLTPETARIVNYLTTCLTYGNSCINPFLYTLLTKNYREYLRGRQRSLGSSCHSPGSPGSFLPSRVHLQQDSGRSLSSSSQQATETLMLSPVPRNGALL
Summary of the method: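 CHO cells stably expressing rat U-II receptor, seeded 24 h before assay, were loaded with FLIPR calcium dye in HBSS/20 mM HEPES/0.1% BSA/2.5 mM probenecid, pH 7.4, for 1 h at 37° C. Calcium mobilization then read by FLIPR at 23° C.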

[2] = target: T2, endogenous human UII receptor (Homo sapiens, UniProt Q9UKP6); experiment: Human Radioligand Binding Assay ((^125I)-U-II binding to human skeletal muscle myoblasts)
T2 sequence (Q9UKP6 1-389): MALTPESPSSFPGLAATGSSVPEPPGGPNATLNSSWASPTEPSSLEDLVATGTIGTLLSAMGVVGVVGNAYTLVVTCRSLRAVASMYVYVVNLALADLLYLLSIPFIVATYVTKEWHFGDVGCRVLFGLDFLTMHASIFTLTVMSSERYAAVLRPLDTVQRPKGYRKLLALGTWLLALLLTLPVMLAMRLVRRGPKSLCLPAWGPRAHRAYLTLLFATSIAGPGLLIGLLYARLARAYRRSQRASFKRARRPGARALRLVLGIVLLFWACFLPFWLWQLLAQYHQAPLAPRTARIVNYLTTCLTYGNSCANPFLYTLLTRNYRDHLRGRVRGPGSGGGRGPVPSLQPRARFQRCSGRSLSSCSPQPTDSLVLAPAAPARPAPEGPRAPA

[3] = target: T3, Human UII receptor, 6D9 human rhabdomyosarcoma cells (Homo sapiens, UniProt Q9UKP6); experiment: Human UII Calcium Mobilization Assay; assay type: cell-based; details: average value, FLIPR TETRA, read-out: Human UII Ca^+ Mobilization Average IC50
T3 construct: 6D9: isolated by dilution subcloning of RMS13 cells, ATCC® Number: CRL-2061; host or cells: 6D9 human rhabdomyosarcoma cells (subclone of RMS13)
T3 sequence (Q9UKP6 1-389): T2 sequence (Q9UKP6 1-389)
Protocol: 6D9 human rhabdomyosarcoma cells were seeded into tissue culture treated 384-well black-walled clear bottom plates (3712, Corning Incorporated, Corning, N.Y.) at 8,000 cells/well in 25 μL of culture medium, and maintained in an incubator (5% CO2 at 37° C.) for 22 hrs prior to the calcium mobilization assay. 25 μL of dye solution was added to the wells such that the final liquid volume before agonist/antagonist treatment was 50 μL for all assays. The cell plates were incubated at 37° C. for 45 minutes and the fluorescence intensity was measured on a Fluorometric Imaging Plate Reader (FLIPR^TETRA, Molecular Devices, Sunnyvale, Calif.).
Antagonist and agonist U-II were added at room temperature on the FLIPR^TETRA, and the fluorescence intensity before and after addition was measured over a period of 4 minutes. The dye incubation time and temperature as well as instrument setting was adjusted so the fluorescence intensity could be compared between plates on the same day. EC50 and IC50 were analyzed using GraphPad Prism 4 software (GraphPad Software Inc., San Diego, Calif.).
Materials and reagent Preparation: Human Rhabdomyosarcoma cells (6D9: isolated by dilution subcloning of RMS13 cells, ATCC® Number: CRL-2061, American Type Culture Collection ATCC, Manassas, Va.) was maintained in RPMI-1640 medium (30-2001, ATCC, Manassas, Va.) supplemented with 10% (v/v) Fetal Bovine Serum (SH30071.03, Hyclone, Logan, Utah).
Dye preparation: BD™ Calcium Assay Kit (80500-301, BD Biosciences, Rockville, Md.) was prepared according to the manufacture's instruction in 1× Hanks' balanced salt solution (HBSS, 21-023-CV, Mediatech, Inc. Herndon, Va.) containing 20 mM HEPES buffer (25-060-CI, Mediatech, Inc. Herndon, Va.). Final dye loading conditions included 1.25 mM probenecid (P36400, Invitrogen, Carlsbad, Calif.) and 0.01% FBS.
Urantide (PUT-3639-PI, Peptide International, Louisville, Ky.) was prepared in water at 5 mM. For assays, U-II agonist, U-II antagonist and urantide were diluted with HBSS/HEPES containing 0.01% FBS.
Test compounds were dissolved in DMSO at 10 mM concentration. The serial dilutions were carried out in HBSS/HEPES. The highest final DMSO concentration was at 0.1%.

| Compound | IC50 [1] [µM] | Ki [2] [µM] | IC50 [3] [µM] | Ki ([2]; read-out: Human UII Average Binding Ki, average value, (^125I)-U-II binding to human skeletal muscle myoblasts (HSMM), 25° C., 3 h) [µM] |
| --- | --- | --- | --- | --- |
| COc1ccc([C@@H](CCCNS(=O)(=O)c2cccs2)N2C(=O)c3cccc(N4CCN(Cc5cccnc5)CC4)c3C2=O)cc1OC [Cpd 171, (R)-thiophene-2-sulfonic acid {4-(3,4-dimethoxy-phenyl)-4-[1,3-dioxo-4-(4-pyridin-3-ylmethyl-piperazin-1-yl)-1,3-dihydro-isoindol-2-yl]-butyl}-amide] | 0.011 | 0.37 | 1 | – |
| COc1ccc([C@@H](CCNS(=O)(=O)O)N2C(=O)c3cccc(N4CCN([C@H](C)c5ccccc5)CC4)c3C2=O)cc1OC [Cpd 220, (R)-(3-(3,4-dimethoxy-phenyl)-3-{1,3-dioxo-4-[4-(1R)-(1-phenyl-ethyl)-piperazin-1-yl]-1,3-dihydro-isoindol-2-yl}-propyl)-sulfamic acid] | 0.023 | 0.011 | 0.17 | – |
| CCN1CCN(c2cccc3c2C(=O)N([C@H](CCCO)c2ccc(OC)c(OC)c2)C3=O)CC1 [Cpd 206, (R)-2-[1-(3,4-dimethoxy-phenyl)-4-hydroxy-butyl]-4-(4-ethyl-piperazin-1-yl)-isoindole-1,3-dione] | 0.69 | 0.066 | 0.68 | – |
| COc1ccc([C@@H](CCCNC(=O)c2cscn2)N2C(=O)c3cccc(N4CCN([C@H](C)c5ccccc5)CC4)c3C2=O)cc1OC [Cpd 163, (R)-thiazole-4-carboxylic acid (4-(3,4-dimethoxy-phenyl)-4-{1,3-dioxo-4-[4-(1R)-(1-phenyl-ethyl)-piperazin-1-yl]-1,3-dihydro-isoindol-2-yl}-butyl)-amide] | 0.015 | 0.095 | 0.5 | – |
| CCN1CCN(c2cccc3c2C(=O)N(C(CC2CCN(Cc4ccccc4)CC2)c2ccc(OC)c(OC)c2)C3=O)CC1 (stereo not drawn) [Cpd 232, 2-[2-(1-benzyl-piperidin-4-yl)-1-(3,4-dimethoxy-phenyl)-ethyl]-4-(4-ethyl-piperazin-1-yl)-isoindole-1,3-dione] | 0.41 | > 0.3 | 4.1 | – |
| COc1ccc(C(CNC(=O)Cc2ccncc2)N2C(=O)c3cccc(N4CCN([C@H](C)c5ccccc5)CC4)c3C2=O)cc1OC (stereo partly drawn) [Cpd 102, N-(2-(3,4-dimethoxy-phenyl)-2-{1,3-dioxo-4-[4-(1R)-(1-phenyl-ethyl)-piperazin-1-yl]-1,3-dihydro-isoindol-2-yl}-ethyl)-2-pyridin-4-yl-acetamide] | 0.049 | 0.099 | 0.52 | – |
| COc1ccc(C(CCCNS(=O)(=O)c2ccc(-c3ccon3)s2)N2C(=O)c3cccc(N4CCN([C@H](C)c5ccccc5)CC4)c3C2=O)cc1OC (stereo partly drawn) [Cpd 95, 5-isoxazol-3-yl-thiophene-2-sulfonic acid (4-(3,4-dimethoxy-phenyl)-4-{1,3-dioxo-4-[4-(1R)-(1-phenyl-ethyl)-piperazin-1-yl]-1,3-dihydro-isoindol-2-yl}-butyl)-amide] | 0.089 | 0.11 | 0.2 | – |
| COc1ccc([C@@H](CCCNC(=O)c2cnn(C)c2Cl)N2C(=O)c3cccc(N4CCN([C@H](C)c5ccccc5)CC4)c3C2=O)cc1OC [Cpd 183, (R)-5-chloro-1-methyl-1H-pyrazole-4-carboxylic acid (4-(3,4-dimethoxy-phenyl)-4-{1,3-dioxo-4-[4-(1R)-(1-phenyl-ethyl)-piperazin-1-yl]-1,3-dihydro-isoindol-2-yl}-butyl)-amide] | 0.019 | 0.055 | 1.3 | – |
| COc1ccc([C@@H](CCCNC(=O)C2CCC2)N2C(=O)c3cccc(N4CCN([C@H](C)c5ccccc5)CC4)c3C2=O)cc1OC [Cpd 178, (R)-cyclobutanecarboxylic acid (4-(3,4-dimethoxy-phenyl)-4-{1,3-dioxo-4-[4-(1R)-(1-phenyl-ethyl)-piperazin-1-yl]-1,3-dihydro-isoindol-2-yl}-butyl)-amide] | 0.013 | 0.022 | 0.56 | – |
| CCN1CCN(c2cccc3c2C(=O)N([C@H](CCCNS(=O)(=O)c2cn(C)c(C)n2)c2ccc(OC)c(OC)c2)C3=O)CC1 [Cpd 203, (R)-1,2-dimethyl-1H-imidazole-4-sulfonic acid {4-(3,4-dimethoxy-phenyl)-4-[4-(4-ethyl-piperazin-1-yl)-1,3-dioxo-1,3-dihydro-isoindol-2-yl]-butyl}-amide] | 0.14 | – | 0.81 | 0.097 |

Continued, in another order:

| IC50 [1] [µM] | Ki [2] [µM] | IC50 [3] [µM] | Compound | Ki ([2]; read-out: Human UII Average Binding Ki, average value, (^125I)-U-II binding to human skeletal muscle myoblasts (HSMM), 25° C., 3 h) [µM] |
| --- | --- | --- | --- | --- |
| 0.049 | 0.025 | 0.78 | COc1ccc([C@@H](CCCN(C)S(=O)(=O)O)N2C(=O)c3cccc(N4CCN([C@H](C)c5ccccc5)CC4)c3C2=O)cc1OC [Cpd 228, (R)-(4-(3,4-dimethoxy-phenyl)-4-{1,3-dioxo-4-[4-(1R)-(1-phenyl-ethyl)-piperazin-1-yl]-1,3-dihydro-isoindol-2-yl}-butyl)-methyl-sulfamic acid] | – |
| 0.0089 | 0.11 | 0.28 | COc1ccc([C@@H](CCCNS(=O)(=O)c2cn(C)nc2C)N2C(=O)c3cccc(N4CCN([C@H](C)c5ccccc5)CC4)c3C2=O)cc1OC [Cpd 128, (R)-1,3-dimethyl-1H-pyrazole-4-sulfonic acid (4-(3,4-dimethoxy-phenyl)-4-{1,3-dioxo-4-[4-(1R)-(1-phenyl-ethyl)-piperazin-1-yl]-1,3-dihydro-isoindol-2-yl}-butyl)-amide] | – |
| 0.013 | 0.088 | 1.2 | COc1ccc([C@@H](CCCNC(=O)c2cn(C)cn2)N2C(=O)c3cccc(N4CCN([C@H](C)c5ccccc5)CC4)c3C2=O)cc1OC [Cpd 153, (R)-1-methyl-1H-imidazole-4-carboxylic acid (4-(3,4-dimethoxy-phenyl)-4-{1,3-dioxo-4-[4-(1R)-(1-phenyl-ethyl)-piperazin-1-yl]-1,3-dihydro-isoindol-2-yl}-butyl)-amide] | – |
| 0.0094 | 0.045 | 0.4 | COc1ccc([C@@H](CCCNC(=O)C2CCCO2)N2C(=O)c3cccc(N4CCN([C@H](C)c5ccccc5)CC4)c3C2=O)cc1OC (stereo partly drawn) [Cpd 155, (R)-tetrahydro-furan-2-carboxylic acid (4-(3,4-dimethoxy-phenyl)-4-{1,3-dioxo-4-[4-(1R)-(1-phenyl-ethyl)-piperazin-1-yl]-1,3-dihydro-isoindol-2-yl}-butyl)-amide] | – |
| 0.018 | 0.35 | 1.1 | COc1ccc([C@@H](CCCNC2=CCCN2)N2C(=O)c3cccc(N4CCN([C@H](C)c5ccccc5)CC4)c3C2=O)cc1OC [Cpd 165, (R)-2-[4-(4,5-dihydro-1H-pyrrol-2-ylamino)-1-(3,4-dimethoxy-phenyl)-butyl]-4-[4-(1R)-(1-phenyl-ethyl)-piperazin-1-yl]-isoindole-1,3-dione] | – |
